Test results: patent publication EP0349431B1, “Sucrose derivatives” (BEGHIN-SAY SOCIETE ANONYME, priority 1988, dated 1990)

Experiments:
Format in all cases: cell-based
[1] = test system: Streptoccus fecalis (ATCC 9790); assay: Bacteriostatic activity (CMI), dilution technique in liquid medium, Exemple 9; conditions: read after 24 H incubation at 35°C
Protocol: (§1) On a préparé des mélanges de solutions limpides de l'échantillon et du milieu de culture, contenant un adjuvant de dissolution, ajouté à raison de la quantité minimale nécessaire.
(§2) On a introduit les solutions obtenues telles quelles ou diluées dans des tubes stériles sous un volume inférieur ou égal à 2,5 ml, que l'on a ensuite ajusté sinécessaire à 2,5 ml à l'aide d'eau stérile. On a alors ajouté à chaque tube 2,5 ml de bouillon nutritif préparé à concentration double, ensemencé de façon à contenir environ 1000 germes par ml et ayant la composition suivante : peptone bactériologique 10 g extrait de viande de boeuf 5 g chlorure de sodium 5 g eau déminéralisèe Q S P 500 ml pH ajusté à 7,2 à l'aide de potasse. stérilisation par fractions de 50 ml 20 mn à 120°C
(§3) Les souches testées sont cultivées sur milieu gélosé "trypticase-soja" dont la compositon de formulation : peptone trypsique de caséine 15 g peptone papaïnique de soja 5 g chlorure de sodium 5 g gélose 15 g eau déminéralisée Q S P 1000 ml pH ajusté à l'aide de potasse à 7,3 stérilisation 20 mn à 120°C.
(§4) Après incubation 18 H à 35°C on ensemence à l'aide de ces cultures des tubes de milieu liquide "trypticase-soja" de formulation : peptone trypsique de caséine 17 g peptone papaïnique de soja 3 g chlorure de sodium 5 g phosphate dipotassique 2,5 g glucose 2,5 g eau déminéralisée Q S P 1000 ml pH ajusté à 7,3 à l'aide de potasse stérilisation 20 mn à 120°C.
(§5) Après 18 H d'incubation à 35°C, les cultures obtenues sont homogénéisées puis diluées.
(§6) Les quatres souches suivantes ont été testées : • Streptoccus fecalis (ATCC 9790) • Escherichia coli (ATCC 10536) • Proteus morganii (ATCC 53185) • Staphylococcus (ATCC 6538P)
(§7) On a effectué trois essais, en utilisant les gammes de concentrations suivantes de dipalmitate-6,6′-saccharose oxydé
(§8) On a effectué l'incubation des tubes à 35°C. Les lectures ont été faites après 18, 24 et 48 H en comparaison avec des tubes témoins de croissance de chaque microorganisme testé, en présence d'un agent tensio-actif : Tween 80 (marque de fabrique d'Atlas Chemical Industries, Inc) pour l'essai N° 1 et Triton X 100, (marque de fabrique de Rohm & Haas Co) pour les essais N°2 et N°3. Les résultats, donnés dans le Tableau I ci-dessous, relevés après 24 H d'incubation, indiquent la concentration (mg/ml) testée en dipalmitate-6,6′-saccharose oxydé à partir de laquelle on observe une absence de développement bactérien pour chacune des souches étudiées.

[2] = test system: Proteus morganii (ATCC 53185); assay: as above; conditions: read after 24 H incubation at 35°C
Protocol: as §1, §2, §3, §4, §5, §6, §7, §8

[3] = test system: Staphylococcus (ATCC 6538P); assay: as above; conditions: for concentration à partir de laquelle on observe une absence de développement bactérien: Triton X 100, read after 24 H incubation at 35°C
Protocol: as §1, §2, §3, §4, §5, §6, §7, §8

[4] = test system: Escherichia coli (ATCC 10536); assay: as above; conditions: read after 24 H incubation at 35°C
Protocol: as §1, §2, §3, §4, §5, §6, §7, §8

[5] = test system: souches étudiées (Streptoccus fecalis, Escherichia coli, Proteus morganii, Staphylococcus); assay: Bacteriostatic activity (CMI), overall statement for the strains of Exemple 9; conditions: summary sentence in the text: good bacteriostatic activity, all strains of Exemple 9
Protocol: as §1, §2
as §3, with “120°C. […]” for “120°C.”

[6] = Essai N°1, Tween 80, tested 0,1 - 1 - 10 mg/ml
[7] = Essai N°2, Triton X 100, tested 0,1 - 1,6 mg/ml
[8] = Essai N°3, Triton X 100, tested 0,006 - 3,2 mg/ml

dipalmitate-6,6′-saccharose oxydé
concentration à partir de laquelle on observe une absence de développement bactérien [1, 6]: 1 mg/mL
concentration à partir de laquelle on observe une absence de développement bactérien [1, 7]: 0,8 mg/ml
concentration à partir de laquelle on observe une absence de développement bactérien [1, 8]: 0,8 mg/ml
concentration à partir de laquelle on observe une absence de développement bactérien [2, 6]: 1 mg/mL
concentration à partir de laquelle on observe une absence de développement bactérien [2, 7]: 0,2 mg/ml
concentration à partir de laquelle on observe une absence de développement bactérien [2, 8]: 0,2 mg/ml
concentration à partir de laquelle on observe une absence de développement bactérien ([3]; Essai N°2, tested 0,1 - 1,6 mg/ml): < 0,1 mg/ml
concentration à partir de laquelle on observe une absence de développement bactérien ([3]; Essai N°3, tested 0,006 - 3,2 mg/ml): 0,01 mg/ml
concentration suffisante pour inhiber son développement ([3]; summary sentence in the text on Exemple 9): ≤ 0,01 mg/ml
concentration à partir de laquelle on observe une absence de développement bactérien [4, 6]: 1 mg/mL
concentration à partir de laquelle on observe une absence de développement bactérien [4, 7]: 0,8 mg/ml
concentration à partir de laquelle on observe une absence de développement bactérien [4, 8]: 1,6 mg/ml
concentration minimale inhibitrice (CMI) [5]: 1,6 mg/ml
